Test results taken from patent US7700584B2 (Hangzhou Minsheng Pharmaceuticals Co., Ltd., priority 2004, dated 2010).
In brackets after ≈: the same amount, converted by molar mass. Read-outs that look alike come from different tables or passages of the source.

Columns and labels:
[1] = test system: Hepatitis B virus (HBV); type: cell-based; details: 200 μg/ml
[2] = test system: HL-60 human promyelocytic leukemia; experiment: In vitro inhibition rate to tumor cells (MTT), HL-60; type: cell-based; details: for inhibition at 50 µg/mL: Homo sapiens, HL-60, 50 μg/ml, read-out: inhibition rate, Results (%) HL-60; for inhibition rate, Results (%) HL-60: 50 μg/ml
[3] = test system: LLC mouse Lewis lung carcinoma; experiment: In vitro inhibition rate to tumor cells (MTT), LLC; type: cell-based; details: 50 μg/ml; for inhibition at 50 µg/mL: Mus musculus, Lewis lung carcinoma
[4] = test system: Bel-7402 human hepatic carcinoma; experiment: In vitro inhibition rate to tumor cells (MTT), Bel-7402; type: cell-based; details: for inhibition at 50 µg/mL: Homo sapiens, Bel-7402, 50 μg/ml, read-out: inhibition rate, Results (%) Bel-7402; for inhibition rate, Results (%) Bel-7402: 50 μg/ml
[5] = test system: A-549 human lung adenocarcinoma; experiment: In vitro inhibition rate to tumor cells (MTT), A-549; type: cell-based; details: for inhibition at 50 µg/mL: Homo sapiens, A549, 50 μg/ml, read-out: inhibition rate, Results (%) A-549; for inhibition rate, Results (%) A-549: 50 μg/ml
[6] = test system: SMMC-7721 human hepatic carcinoma; experiment: In vitro inhibition rate to tumor cells (MTT), SMMC-7721; type: cell-based; details: for inhibition at 50 µg/mL: Homo sapiens, SMMC-7721, 50 μg/ml, read-out: inhibition rate, Results (%) SMMC-7721; for inhibition rate, Results (%) SMMC-7721: 50 μg/ml
[7] = test system: Hela human cervical carcinoma; experiment: In vitro inhibition rate to tumor cells (MTT), Hela; type: cell-based; details: 50 μg/ml; for inhibition at 50 µg/mL: Homo sapiens, HeLa, read-out: inhibition rate, Results (%) Hela
[8] = test system: MCF-7 human mammary adenocarcinoma; experiment: In vitro inhibition rate to tumor cells (MTT), MCF-7; type: cell-based; details: for inhibition at 50 µg/mL: Homo sapiens, MCF7, 50 μg/ml, read-out: inhibition rate, Results (%) MCF-7; for inhibition rate, Results (%) MCF-7: 50 μg/ml
[9] = test system: U-937 human histocytic lymphoma; experiment: In vitro inhibition rate to tumor cells (MTT), U-937; type: cell-based; details: for inhibition at 50 µg/mL: Homo sapiens, U-937, 50 μg/ml, read-out: inhibition rate, Results (%) U-937; for inhibition rate, Results (%) U-937: 50 μg/ml
[10] = test system: HepG2 cells; experiment: Cell status of HepG2 cells treated with sample (HBV screening); type: cell-based; details: 200 μg/ml, HepG2, four days after infection
[11] = test system: MDCK (dog kidney) cells; experiment: Toxicity TC50 of the samples in MDCK cells (influenza screening); details: concentration of 50% toxicity
[12] = test system: U-937 human histocytic lymphoma; experiment: In vitro anti-tumor IC50 (MTT), U-937; type: cell-based; details: Table 4
Experimental: (§1) (1) Single cell suspension was seeded into 96-well plates (the cells was diluted in the PRMI-1640 minimum medium to 3×10^4 cells/ml, […] diluted cells/well). […] The experiments were performed in quadruplicate.
(§2) (2) The medium was removed. Solutions of the anti-tumor agents (50 compounds) were prepared in a freshly prepared medium at serial concentrations. […] of the solution was added into each well. Incubation was continued for 48 hours.
(§3) (3) 20 ug of 2 mg/ml MTT was added into each well, and incubated for 4 hours.
(§4) (4) The medium was removed from the well. The microplates were swiftly turned down to throw-off the medium. […] of DMSO was added into each well, and vortexed at room temperature for 10 minutes.
(§5) (5) OD value (λ=570 nm) was measured with an Enzyme-Linked Detector.
(§6) (6) The graph of cell vitality was plotted, and IC50 was calculated.

[13] = test system: Hela human cervical carcinoma; experiment: In vitro anti-tumor IC50 (MTT), Hela; type: cell-based; details: Table 4
Experimental: as §1, §2, §3, §4, §5, §6

C=C1CC2(OC)OC3(CC2C(C)C)C(C)CCC13 (centres unmarked) [Compound 25, Curcumol methyl ether]
(Value of the positive control - Measured Value) Value of the positive control × 100% ([1]; decrease of HBeAg relative to positive control): −31.8206% | OD450 of HBeAg ([1]; supernatant four days after infection, positive control 1.917, negative 0.057): 2.527 | inhibition at 50 µg/mL ([2]; Table 1): -2.63% | inhibition at 50 µg/mL ([2]; Table 2 (repeated screening)): 1.23% | inhibition at 50 µg/mL ([3]; Table 1): 4.18% | inhibition at 50 µg/mL ([3]; Table 2 (repeated screening)): 1.02% | inhibition at 50 µg/mL ([4]; Table 1): 5.68% | inhibition at 50 µg/mL ([4]; Table 2 (repeated screening)): 2.03% | inhibition at 50 µg/mL ([5]; Table 1): 13.7% | inhibition at 50 µg/mL ([5]; Table 2 (repeated screening)): 14.2% | inhibition at 50 µg/mL ([6]; Table 1): 0.24% | inhibition at 50 µg/mL ([6]; Table 2 (repeated screening)): 8.32% | inhibition at 50 µg/mL ([7]; Table 1): 81.9% | inhibition at 50 µg/mL ([7]; Table 2 (repeated screening)): 75.5% | inhibition at 50 µg/mL ([8]; Table 1): 9.53% | inhibition at 50 µg/mL ([8]; Table 2 (repeated screening)): 8.12% | inhibition at 50 µg/mL ([9]; Table 1): 86.9% | inhibition at 50 µg/mL ([9]; Table 2 (repeated screening)): 82.4% | Cell status [10]: Poor | TC50 [11]: >1000 µg/mL

CCCCNC=C1CC2(O)OC3(CC2C(C)C)C(C)CCC13 (centres unmarked) [Compound 13, Curcumol n-butyl amine]
IC50 (ug/ml) against tumor cell lines, U-937 [12]: 0.98 µg/mL (≈ 3.19 µM) | inhibition rate, Results (%) HL-60 ([2]; Table 1): 0.12% | inhibition rate, Results (%) HL-60 ([2]; Table 2 (repeated screening)): 0.79% | inhibition rate, Results (%) LLC ([3]; Table 1): 0.24% | inhibition rate, Results (%) LLC ([3]; Table 2 (repeated screening)): 1.32% | inhibition rate, Results (%) Bel-7402 ([4]; Table 1): 33.16% | inhibition rate, Results (%) Bel-7402 ([4]; Table 2 (repeated screening)): 30.25% | inhibition rate, Results (%) A-549 ([5]; Table 1): 7.59% | inhibition rate, Results (%) A-549 ([5]; Table 2 (repeated screening)): 3.56% | inhibition rate, Results (%) SMMC-7721 ([6]; Table 1): 3.71% | inhibition rate, Results (%) SMMC-7721 ([6]; Table 2 (repeated screening)): 0.23% | IC50 (ug/ml) against tumor cell lines, Hela [13]: 1.6 µg/mL (≈ 5.2 µM) | inhibition rate, Results (%) Hela ([7]; Table 1): 66.32% | inhibition rate, Results (%) Hela ([7]; Table 2 (repeated screening)): 65.92% | inhibition rate, Results (%) MCF-7 ([8]; Table 1): 54.67% | inhibition rate, Results (%) MCF-7 ([8]; Table 2 (repeated screening)): 50.36% | inhibition rate, Results (%) U-937 ([9]; Table 1): 51.10% | inhibition rate, Results (%) U-937 ([9]; Table 2 (repeated screening)): 45.10%
